Data on 4 molecules can be found in patent US20120125325A1, “THE USE OF AMLEXANOX IN THE THERAPY OF NEUTROPHIL-DRIVEN DISEASES” (priority 2009, published 2012).

For data set [1], the system named is leukotriene B4. The note with it: Taniguchi et al, 1990, and Kimishoto et al, 2006; cited from earlier work.
The subject of data set [2] is LPS-induced neutrophilia in the airways of mice. Description: LPS-induced airway neutrophilia in mice, inhaled (intra-tracheal) dosing (Example 2). The note with it: for piloerection following LPS aerosol exposure: also seen in vehicle treated animals; for tolerance of dosing: mouse, in vivo. As to the method:
• n=8 • Group 1—sham • Group 2—vehicle (10% DMSO) • Group 3—amlexanox (0.3 mg/mL) • Group 4—amlexanox (3 mg/mL) • Group 5—amlexanox (10 mg/mL) • Group 6—amlexanox (15 mg/mL) • Group 7—salbutamol (1 mg/mL) • Group 8—amlexanox (0.3 mg/mL)+salbutamol (1 mg/mL) • Group 9—amlexanox (3 mg/mL)+salbutamol (1 mg/mL) • Group 10—dexamethasone (1.0 mg/mL) • Group 11—fluticasone (1.0 mg/mL) • N.B. All test compounds to be administered by intra-tracheal dosing (using a PennCentury device) 1 hour before endotoxin exposure.
Non-fasted mice were weighed, individually identified on the tail with a permanent marker and administered by intra tracheal administration with doses of either vehicle, amlexanox, fluticasone, dexamethasone or salbutamol at time point T=−1 with respect to the start of LPS treatment (see above for group details). At T=0, mice were placed into an exposure chamber and exposed to LPS. The LPS was prepared in a solution of 0.5 mg/ml and aerosolised using a De Vibliss ultrasonic nebuliser 2000, so that 7 ml of the solution was aerosolised during the 30 min exposure period.
8 hours after LPS challenge the trachea was cannulated and BALF extracted. The procedure for this involved infusing and withdrawing 1 mL of PBS into the lungs via a tracheal catheter. This procedure was repeated to give a yield of approximately 2 mL lavage fluid. The BALF was aliquoted for analysis of neutrophilia and the remaining BALF stored at −80° C. for future cytokine analysis if required.
Total and differential white cell counts in the BAL fluid samples were measured using a Neubaur haemocytometer. Cytospin smears of the BAL fluid samples were prepared by centrifugation at 1200 rpm for 1 min at room temperature and stained using a DiffQuik stain system (Dade Behring).
Cells were counted blind using oil immersion microscopy.
Data were reported as total and differential number of cells per mL of BALF, mean±S.E.M. (standard error of the mean).
Inter-group deviations were statistically analysed by a one-way analysis of variance (ANOVA). In the case of significant difference in the mean values among the different levels of treatment, comparisons versus the vehicle group were carried out using the Dunnett's test. In case the equal variance test fails, a Kruskal-Wallis one-way analysis of variance on ranks followed by a Dunn's test were used. p<0.05 will be considered statistically significant.
Test compounds were administered in a dose volume of 20 μL using a FMJ-250 PennCentury device for intra-tracheal dosing.

A short description of data set [3]: Bronchodilator effect.
Data set [4] relates to LPS-induced neutrophilia in the airways of mice. The data set is described as follows: LPS-induced airway neutrophilia in mice, oral amlexanox (Example 1). The note with it: amlexanox 1-30 mg/kg p.o. 1 hour before LPS aerosol, BALF 8 hours after LPS. The format is in vivo. As to the method:
• n=8 • Group 1—sham (control) • Group 2—Vehicle (10% DMSO, p.o.) • Group 3—amlexanox (1 mg/kg, p.o.) • Group 4—amlexanox (3 mg/kg, p.o.) • Group 5—amlexanox (10 mg/kg, p.o.) • Group 6—amlexanox (30 mg/kg, p.o.) • Group 7—dexamethasone (1 mg/ml) • p.o.=per orus (orally)
N.B. All test compounds were administered via oral gavage using a ball tipped stainless steel delivery cannulae or via intra-tracheal dosing (using a PennCentury devise). In all cases this was 1 hour before endotoxin exposure.
In all cases the cells were counted blind using oil immersion microscopy.
Amlexanox dosed via oral gavage was administered in a dose volume of 0.1 ml using a ball tipped stainless steel delivery cannule.

For the molecule `CC(C)c1ccc2oc3nc(N)c(C(=O)O)cc3c(=O)c2c1` [amlexanox], the LTB4 production result in data set [1] is given as “increase LTB4 production”. Besides, the “piloerection following LPS aerosol exposure” value in data set [2] (mice) was “noticeable degree of piloerection”. For the same molecule, in data set [2] (mice, amlexanox 0.3-15 mg/mL, 20 μL intra-tracheal 1 hour before LPS aerosol, BALF 8 hours after LPS), the “inhibition of neutrophilia (total cells and neutrophils in bronchoalveolar lavage fluid, FIGS. 2 to 6)” value was “inhibits neutrophilia”. Moreover, the tolerance of dosing result in data set [2] is given as “good tolerance of dosing”. In addition, the “effect as a bronchodilator” value in data set [3] is given as “little or no effect as a bronchodilator”. The “inhibition of LPS-induced neutrophilia (cells in bronchoalveolar lavage fluid, FIG. 1)” value in data set [4] was “effective at inhibiting LPS-induced neutrophilia”.

Consider `C[C@@H]1C[C@H]2[C@@H]3CCC4=CC(=O)C=C[C@]4(C)[C@@]3(F)[C@@H](O)C[C@]2(C)[C@@]1(O)C(=O)CO` [dexamethasone], for which the “piloerection following LPS aerosol exposure” value in data set [2] (mice) is given as “noticeable degree of piloerection”. The tolerance of dosing result in data set [2] is given as “good tolerance of dosing”.

In the case of `C[C@@H]1C[C@H]2[C@@H]3C[C@H](F)C4=CC(=O)C=C[C@]4(C)[C@@]3(F)[C@@H](O)C[C@]2(C)[C@@]1(O)C(=O)SCF` [fluticasone], in data set [2] (mice), the “piloerection following LPS aerosol exposure” value is on record as “noticeable degree of piloerection”. In addition, the tolerance of dosing result in data set [2] is on record as “good tolerance of dosing”.

Consider `CC(C)(C)NCC(O)c1ccc(O)c(CO)c1` (stereo not drawn) [salbutamol], for which the “piloerection following LPS aerosol exposure” value in data set [2] (mice) is on record as “noticeable degree of piloerection”. Further, the tolerance of dosing entry in data set [2] is recorded as “good tolerance of dosing”.
